ChEMBL document CHEMBL5131541, “Structural Feature Analyzation Strategies toward Discovery of Orally Bioavailable PROTACs of Bruton's Tyrosine Kinase for the Treatment of Lymphoma” (J Med Chem, 2022)
pIC50: −log10 of the molar value.

Experiments:
[1] = Half life in Sprague-Dawley rat at 5 to 10 mg/kg, po administered as cassette dose measured upto 24 hrs by LC-MS analysis; type: ADME, organism-based; settings: in vivo, dose 5-10 mg/kg
[2] = Tmax in Sprague-Dawley rat at 5 to 10 mg/kg, po administered as cassette dose measured upto 24 hrs by LC-MS analysis; type: ADME, organism-based; settings: in vivo, dose 5-10 mg/kg
[3] = Cmax in Sprague-Dawley rat at 5 to 10 mg/kg, po administered as cassette dose measured upto 24 hrs by LC-MS analysis; type: ADME, organism-based; set-up: time < 24 hrs, route po; settings: in vivo, dose 5-10 mg/kg
[4] = AUC (0 to t) in Sprague-Dawley rat at 5 to 10 mg/kg, po administered as cassette dose measured upto 24 hrs by LC-MS analysis; type: ADME, organism-based; set-up: time < 24 hrs, route po; settings: in vivo, dose 5-10 mg/kg
[5] = Dose normalized AUC (0 to t) in Sprague-Dawley rat at 5 to 10 mg/kg, po administered as cassette dose measured upto 24 hrs by LC-MS analysis; type: ADME, organism-based; settings: in vivo, dose 5-10 mg/kg
[6] = target: T1, Tyrosine-protein kinase BTK (Homo sapiens, UniProt Q06187); assay: Induction of BTK degradation in human MINO cells incubated for 24 hrs by Western blot; type: cell-based; settings: dose 1-1000 nM, DDE = dose-dependent effect
[7] = target: T1, Tyrosine-protein kinase BTK; assay: Inhibition of BTK (unknown origin)
JeKo-1 [8] = assay: cells; settings: Homo sapiens
JeKo-1 [9] = assay: cells; settings: Homo sapiens; remark: listed apart in the source
[10] = Half life in ICR mouse at 100 mg/kg, po measured upto 48 hrs by LC/MS analysis; type: ADME, organism-based; settings: in vivo
[11] = Tmax in ICR mouse at 100 mg/kg, po measured upto 48 hrs by LC/MS analysis; type: ADME, organism-based; settings: in vivo
[12] = Cmax in ICR mouse at 100 mg/kg, po measured upto 48 hrs by LC/MS analysis; type: ADME, organism-based; set-up: dose 100 mg/kg, time < 48 hrs, route po; settings: in vivo
[13] = AUC (0 to t) in ICR mouse at 100 mg/kg, po measured upto 48 hrs by LC/MS analysis; type: ADME, organism-based; set-up: time < 48 hrs, dose 100 mg/kg, route po; settings: in vivo
[14] = AUC (0 to infinity) in ICR mouse at 100 mg/kg, po measured upto 48 hrs by LC/MS analysis; type: ADME, organism-based; set-up: time < 48 hrs, dose 100 mg/kg, route po; settings: in vivo

T1 sequence (Q06187 whole entry): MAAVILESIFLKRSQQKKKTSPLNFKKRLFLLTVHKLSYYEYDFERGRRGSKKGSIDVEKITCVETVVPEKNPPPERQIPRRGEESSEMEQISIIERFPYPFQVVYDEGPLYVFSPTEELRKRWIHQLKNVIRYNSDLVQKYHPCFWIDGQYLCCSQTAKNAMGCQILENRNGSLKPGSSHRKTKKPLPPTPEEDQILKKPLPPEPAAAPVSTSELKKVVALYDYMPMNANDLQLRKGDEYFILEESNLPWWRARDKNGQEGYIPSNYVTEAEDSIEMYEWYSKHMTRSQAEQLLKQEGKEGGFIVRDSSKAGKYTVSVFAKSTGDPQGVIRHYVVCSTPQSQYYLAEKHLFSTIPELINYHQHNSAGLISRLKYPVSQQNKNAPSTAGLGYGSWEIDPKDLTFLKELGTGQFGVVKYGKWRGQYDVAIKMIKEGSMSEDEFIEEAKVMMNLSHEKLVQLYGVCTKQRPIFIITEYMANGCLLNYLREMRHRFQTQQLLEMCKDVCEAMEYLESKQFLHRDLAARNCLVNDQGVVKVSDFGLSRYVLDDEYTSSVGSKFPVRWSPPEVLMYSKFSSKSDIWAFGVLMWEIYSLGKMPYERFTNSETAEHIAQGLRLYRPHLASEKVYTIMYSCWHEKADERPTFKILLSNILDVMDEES

SMILES | half-life [1] | Tmax [2] | Cmax [3] | AUC(0-t) at 24 h [4] | AUCt/dose [5] | Activity [6] | pIC50 [7] | pIC50 (JeKo-1 [8]) | pIC50 (JeKo-1 [9]) | half-life [10] | Tmax [11] | Cmax [12] | AUC(0-t) at 48 h [13] | AUC(0-inf) [14]
O=C1CCC(N2C(=O)c3cccc(N4CCN(C5CCN(CCCCOc6ccc(C(F)(F)F)cc6)CC5)CC4)c3C2=O)C(=O)N1 (configuration not stated) | 5.3 h | 4.7 h | 71 ng/mL | 1160 ng·h/mL | 116 ng·h/mL/mg | – | – | – | – | – | – | – | – | –
O=C1CCC(N2Cc3cc(C#CCN4CCN(c5ccc(C(F)(F)F)cc5)CC4)ccc3C2=O)C(=O)N1 (configuration not stated) | 4 h | 6.7 h | 1050 ng/mL | 15300 ng·h/mL | 1527 ng·h/mL/mg | – | – | – | – | – | – | – | – | –
Nc1ncnc2c1c(-c1ccc(Oc3ccccc3)cc1)nn2[C@@H]1CCCN(C(=O)/C=C/C(=O)N2CCN(CC#Cc3ccc4c(c3)CN(C3CCC(=O)NC3=O)C4=O)CC2)C1 (some centres not stated) | – | – | – | – | – | Dde | 8.05 | 5.30 | 6.53 | – | – | – | – | –
O=C1CCC(N2C(=O)c3ccc(N4CCN(C5CN(CC#CCOc6ccc(C(F)(F)F)cc6)C5)CC4)cc3C2=O)C(=O)N1 (configuration not stated) | 8.6 h | 1.2 h | 1050 ng/mL | 7080 ng·h/mL | 708 ng·h/mL/mg | – | – | – | – | – | – | – | – | –
Nc1ncnc2c1c(-c1ccc(Oc3ccccc3)cc1)nn2[C@@H]1CCCN(C(=O)CCCCC(=O)NCC#CCN2CCN(CC#Cc3ccc4c(c3)CN(C3CCC(=O)NC3=O)C4=O)CC2)C1 (some centres not stated) | – | – | – | – | – | Dde | 8.05 | – | – | – | – | – | – | –
O=C1CCC(N2C(=O)c3ccc(N4CCN(C5CN(CCCCOc6ccc(C(F)(F)F)cc6)C5)CC4)cc3C2=O)C(=O)N1 (configuration not stated) | 3.4 h | 10 h | 223 ng/mL | 2810 ng·h/mL | 281 ng·h/mL/mg | – | – | – | – | – | – | – | – | –
Nc1ncnc2c1c(-c1ccc(Oc3ccccc3)cc1)nn2[C@@H]1CCCN(C(=O)C2(C(=O)N3CCN(CC#Cc4ccc5c(c4)CN(C4CCC(=O)NC4=O)C5=O)CC3)CC2)C1 (some centres not stated) | 2.3 h | 0.9 h | 782 ng/mL | 2530 ng·h/mL | 253 ng·h/mL/mg | Dde | 8.05 | – | – | – | – | – | – | –
Nc1ncnc2c1c(-c1ccc(Oc3ccccc3)cc1)nn2[C@@H]1CCCN(C(=O)CCC(=O)NCC#CCN2CCN(CC#Cc3ccc4c(c3)CN(C3CCC(=O)NC3=O)C4=O)CC2)C1 (some centres not stated) | – | – | – | – | – | Dde | 8.05 | – | – | – | – | – | – | –
O=C1CCC(N2C(=O)c3ccc(N4CCN(CC#CCN5CCN(c6ccc(C(F)(F)F)cc6)CC5)CC4)cc3C2=O)C(=O)N1 (configuration not stated) | 14 h | 2.8 h | 200 ng/mL | 1940 ng·h/mL | 194 ng·h/mL/mg | – | – | – | – | – | – | – | – | –
O=C1CCC(N2Cc3cc(CCCN4CCN(CC#CCOc5ccc(C(F)(F)F)cc5)CC4)ccc3C2=O)C(=O)N1 (configuration not stated) | 2.2 h | 0.3 h | 99 ng/mL | 236 ng·h/mL | 47 ng·h/mL/mg | – | – | – | – | – | – | – | – | –
O=C1CCC(N2C(=O)c3cccc(NCCN4CCN(CC#CCOc5ccc(C(F)(F)F)cc5)CC4)c3C2=O)C(=O)N1 (configuration not stated) | 17.7 h | 3.7 h | 24 ng/mL | 328 ng·h/mL | 65 ng·h/mL/mg | – | – | – | – | – | – | – | – | –
Nc1ncnc2c1c(-c1ccc(Oc3ccccc3)cc1)nn2[C@@H]1CCCN(C(=O)C2(C(=O)NCC#CCN3CCN(CC#Cc4ccc5c(c4)CN(C4CCC(=O)NC4=O)C5=O)CC3)CC2)C1 (some centres not stated) | 1.7 h | 0.3 h | 77 ng/mL | 145 ng·h/mL | 15 ng·h/mL/mg | Dde | 8.05 | – | – | – | – | – | – | –
O=C1CCC(N2Cc3cc(C#CCN4CCN(CC#CCOc5ccc(C(F)(F)F)cc5)CC4)ccc3C2=O)C(=O)N1 (configuration not stated) | 6 h | 8.3 h | 1550 ng/mL | 15200 ng·h/mL | 1524 ng·h/mL/mg | – | – | – | – | – | – | – | – | –
Nc1ncnc2c1c(-c1ccc(Oc3ccccc3)cc1)nn2[C@@H]1CCCN(C(=O)CCCCCCC(=O)NCC#CCN2CCN(CC#Cc3ccc4c(c3)CN(C3CCC(=O)NC3=O)C4=O)CC2)C1 (some centres not stated) | – | – | – | – | – | Dde | 8.05 | – | – | – | – | – | – | –
O=C1CCC(N2Cc3ccc(C#CCN4CCN(CC#CCOc5ccc(C(F)(F)F)cc5)CC4)cc3C2=O)C(=O)N1 (configuration not stated) | – | 8.5 h | 1250 ng/mL | 7960 ng·h/mL | 796 ng·h/mL/mg | – | – | – | – | – | – | – | – | –
O=C1CCC(N2C(=O)c3cccc(N4CCN(CC5CCN(CCCCOc6ccc(C(F)(F)F)cc6)CC5)CC4)c3C2=O)C(=O)N1 (configuration not stated) | 112 h | 10.7 h | 68 ng/mL | 1130 ng·h/mL | 113 ng·h/mL/mg | – | – | – | – | – | – | – | – | –
O=C1CCC(N2C(=O)c3cccc(N4CCN(CC5CCN(CC#CCOc6ccc(C(F)(F)F)cc6)CC5)CC4)c3C2=O)C(=O)N1 (configuration not stated) | 8.9 h | 11 h | 419 ng/mL | 4350 ng·h/mL | 435 ng·h/mL/mg | – | – | – | – | – | – | – | – | –
Nc1ncnc2c1c(-c1ccc(Oc3ccccc3)cc1)nn2[C@@H]1CCCN(C(=O)[C@H]2CC[C@H](C(=O)N3CCN(CC#Cc4ccc5c(c4)CN(C4CCC(=O)NC4=O)C5=O)CC3)CC2)C1 (some centres not stated) | 0.8 h | 0.6 h | 16 ng/mL | 24 ng·h/mL | 2 ng·h/mL/mg | Dde | 8.05 | < 4.70 | 5.71 | – | – | – | – | –
Nc1ncnc2c1c(-c1ccc(Oc3ccccc3)cc1)nn2[C@@H]1CCCN(C(=O)/C=C/C(=O)NCC#CCN2CCN(CC#Cc3ccc4c(c3)CN(C3CCC(=O)NC3=O)C4=O)CC2)C1 (some centres not stated) | 1.5 h | 0.6 h | 15 ng/mL | 20 ng·h/mL | 2 ng·h/mL/mg | Dde | 8.05 | – | – | – | – | – | – | –
Nc1ncnc2c1c(-c1ccc(Oc3ccccc3)cc1)nn2[C@@H]1CCCN(C(=O)[C@H]2CCCC[C@H]2C(=O)NCC#CCN2CCN(CC#Cc3ccc4c(c3)CN(C3CCC(=O)NC3=O)C4=O)CC2)C1 (some centres not stated) | 1.4 h | 0.6 h | 125 ng/mL | 247 ng·h/mL | 25 ng·h/mL/mg | Dde | 8.05 | < 4.70 | 6.10 | 1 h | 0.7 h | 52 ng/mL | 62 ng·h/mL | 81 ng·h/mL
O=C1CCC(N2C(=O)c3cccc(N4CCN(CC#CCN5CCN(c6ccc(C(F)(F)F)cc6)CC5)CC4)c3C2=O)C(=O)N1 (configuration not stated) | 10.3 h | 0.9 h | 194 ng/mL | 1720 ng·h/mL | 172 ng·h/mL/mg | – | – | – | – | – | – | – | – | –
Nc1ncnc2c1c(-c1ccc(Oc3ccccc3)cc1)nn2[C@@H]1CCCN(C(=O)[C@H]2CCCC[C@H]2C(=O)N2CCN(CC#Cc3ccc4c(c3)CN(C3CCC(=O)NC3=O)C4=O)CC2)C1 (some centres not stated) | 2 h | 0.5 h | 29 ng/mL | 58 ng·h/mL | 6 ng·h/mL/mg | Dde | 8.05 | – | – | – | – | – | – | –
O=C1CCC(N2C(=O)c3cccc(N4CCN(C5CCN(CC#CCOc6ccc(C(F)(F)F)cc6)CC5)CC4)c3C2=O)C(=O)N1 (configuration not stated) | 9.7 h | 1.2 h | 269 ng/mL | 142 ng·h/mL | 143 ng·h/mL/mg | – | – | – | – | – | – | – | – | –
Nc1ncnc2c1c(-c1ccc(Oc3ccccc3)cc1)nn2[C@@H]1CCCN(C(=O)[C@H]2CC[C@H](C(=O)NCC#CCN3CCN(CC#Cc4ccc5c(c4)CN(C4CCC(=O)NC4=O)C5=O)CC3)CC2)C1 (some centres not stated) | 1.5 h | 0.5 h | 69 ng/mL | 112 ng·h/mL | 11 ng·h/mL/mg | Dde | 8.05 | – | – | – | – | – | – | –
O=C1CCC(N2Cc3c(OC4CN(CC#CCN5CCN(c6ccc(C(F)(F)F)cc6)CC5)C4)cccc3C2=O)C(=O)N1 (configuration not stated) | 5.7 h | 0.3 h | 232 ng/mL | 49 ng·h/mL | 128 ng·h/mL/mg | – | – | – | – | – | – | – | – | –
